As usually defined, the melting point is the temperature of the solid-liquid transition. Turning to `CCOC(=O)c1ccc(C#Cc2ccc3c(c2)C(C)(C)CCC3(C)C)cc1`, the melting point lay within 137 to 138 °C.

Regarding `Cc1cc(N)n(-c2ccc(Cl)cc2C)n1`, the melting point fell in the range of 86 to 87 °C.

Turning to `O=C(O)c1cc(O)c(C(=O)c2ccccc2)c([N+](=O)[O-])c1`, the melting point was 264 to 266 °C.

In turn, `COc1ccc(-n2nc(O)c3c(c2=O)Cc2ccc(Cl)cc2N3)c(C)c1` showed a melting point of 264 to 266 °C.

As for `Cc1nc(-c2cccnc2)c(C)[nH]1`, the melting point was 179 to 181 °C.

The compound `CCCCc1oc2ccccc2c1C(=O)NCc1ccc2c(-c3ccc(Cl)cc3)c(OC(Cc3ccccc3)C(=O)O)ccc2c1` (centres undefined) returned a melting point of 169 to 172 °C.

`CCCNCc1cnc2c(C)c(NC(=O)c3ccc(OC[C@@H]4CCCO4)cc3)ccc2c1` gave a melting point of 121 to 122 °C.

The compound `Fc1ccc(/C=C/c2nc(COc3cccc(CCCn4ccnn4)c3)co2)c(F)c1` displayed a melting point of 89 to 90 °C.

For `CC(F)(F)CC(Br)c1ccccc1S(N)(=O)=O` (centres undefined), the melting point was in the range of 104 to 105 °C.

With `CNn1cc(C(=O)O)c(=O)c2cc(F)c(Cl)cc21`, the melting point was 275 to 279 °C.

With `O=C1C=C(Oc2ccc(Oc3ccccc3)cc2)C(O)O1` (centres undefined), the melting point lay within 107 to 108 °C.

The compound `CCOc1cc(Cc2cnc(N)nc2N)cc2c1OC(C)(C)C=C2c1cccc(F)c1` returned a melting point of 185 to 186 °C.

As to `CC(C)(C)NC(=O)C1CCCN1C(=O)C(O)C(Cc1ccccc1)NC(=O)C(CC(N)=O)NC(=O)COc1cccc(NC(=O)OCc2ccccc2)c1` (centres undefined), the melting point lay within 107 to 117 °C.

With `Cc1cc(C)n(C)c1C(=O)c1ccc(Cl)cc1`, the melting point was in the range of 94 to 98 °C.

For `COCc1n[nH]c2c1c(=O)n(-c1ccccc1)c1ncccc21`, the melting point fell in the range of 263 to 265 °C.

For `Cc1c(C)c2c(c(C)c1NC(=O)NCC(C)(C)CO)C(c1ccc(C(C)C)cc1)CO2` (centres undefined), the melting point is 117 to 118 °C.

In turn, `N=C(N)c1noc2cc([N+](=O)[O-])ccc12` returned a melting point of 182 to 185 °C.

In turn, `O=c1c2ccccc2n(CCc2ccccc2)c(=O)n1S(=O)(=O)c1ccc(Cl)cc1` registered a melting point of 200 to 202 °C.

In turn, `Cc1cccnc1NC(=O)Nc1cccc2c1C1CC(=O)CCN1C2=O` (centres undefined) had a melting point of over 260 °C.

For the compound `CS(=O)(=O)c1ccc(-c2cnn(CC(F)(F)F)c(=O)c2C2CCCCC2)cc1`, the melting point lay within 215 to 218 °C.

For `Cc1ncc([N+](=O)[O-])n1CCn1c(=O)[nH]c2ccccc2c1=O`, the melting point was in the range of 261 to 264 °C.

Compound `Cc1cc(CCCCCOc2c(Cl)cc(-c3ccco3)cc2Cl)on1` gave a melting point of 29 to 30 °C.

`CCOc1ccc(C=O)cc1CCl` yielded a melting point of 74.5 to 75.5 °C.

`CCOc1ccc2c(c1)C(C)(c1ccccc1Cl)C(=O)N2S(=O)(=O)c1ccc(C(=O)O)cc1` (centres undefined): the melting point is 174 °C.

As for `O=C(NC(=O)c1c(F)cccc1F)Nc1cc(Cl)c(OCC(F)(F)F)cc1F`, the melting point was in the range of 201 to 202 °C.

Take `C[C@@H]1C(=O)C[C@H]2C[C@@H]1OO[C@@]2(C)/C=C\c1ccc(Br)c2ccccc12`: the melting point was determined as 167 °C.

For `O=C(Nc1ccc(Cl)cc1)ONC1=Nc2ccc(Cl)cc2C(c2ccccc2)=NC1`, the melting point lay within 200 to 203 °C.

Compound `Cc1nc2c(O)cccc2c(Cl)c1C` gave a melting point of 120 °C.

The compound `Cc1cc(C)c(Nc2nc(C)ccc2S(=O)(=O)c2cccc(O)c2)c(C)c1` gave a melting point of 196 to 197 °C.

Regarding `CN(C)C=Cc1cc(Cl)c(Cl)cc1[N+](=O)[O-]`, the melting point was 171 to 174 °C.

On to `CC(O)C(C)N=[N+]([O-])c1ccc(O)cc1` (centres undefined), for which the melting point is 124 to 125 °C.

As for `COc1ccc(-c2cc3cc(OC)cc(CBr)c3o2)cc1`, the melting point lay within 158 to 160 °C.

Take `COc1cc2c(cc1OC)C(C)CC(N)C(=O)N2` (centres undefined): the melting point was found to be 103 °C.

As for `Cn1c(C(=O)c2ccc(F)cc2)cc2cc(OCc3ccccc3)ccc21`, the melting point was in the range of 118 to 120 °C.

Turning to `CSc1nn2c(N)cc(C)nc2c1S(=O)(=O)c1ccc(Cl)cc1`, the melting point was over 230 °C.

`Cn1ncnc1COc1nn2c(-c3ccccc3F)nncc2c1-c1cc(F)cc(F)c1` yielded a melting point of 171 to 173 °C.

For `O=C(Nc1ccc(-n2nc(C(F)(F)F)cc2C(F)(F)F)cc1)c1cccc([N+](=O)[O-])c1`, the melting point is 203 to 204 °C.

`CCOC(=O)C1=C(COCc2nnn[nH]2)NC(C)=C(C(=O)OC)C1c1ccccc1Cl` (centres undefined) had a melting point of 122 to 124 °C.

With `O=C(O)CC(=O)NCc1cc(Br)cc2[nH]c(=O)c(=O)[nH]c12`, the melting point was over 300 °C.

For the compound `O=C(Cl)C(=O)N1CCOC1=O`, the melting point came out at 57 °C.

In the case of `Nc1cc(C(=O)O)cc(SCc2ccccc2)c1-c1ccccc1`, the melting point is 173 to 174 °C.

Compound `O=C(O)c1ccc(F)c(Oc2ccccc2)c1` had a melting point of 226 to 227 °C.

The compound `O=C(Nc1ccc(NC(=S)NCc2ccccc2)cc1)c1ccc(NC(=S)NCc2ccccc2)cc1` showed a melting point of 207 °C.

For the compound `CCCn1cc(Cc2ccc(C(=O)O)cc2OC)c2cc(CCCC(=O)N(C)C)ccc21`, the melting point lay in the range of 117 to 118 °C.

Regarding `O=[N+]([O-])c1ccc([N+](=O)[O-])c(OCC=CCBr)c1`, the melting point lay within 81 to 83 °C.

Regarding `CCOC(=O)CC1CCC(CCNS(=O)(=O)c2ccc(Br)cc2)CC1` (centres undefined), the melting point was determined as 62 °C.

`NC(=O)OCCn1cc(C(=O)O)c(=O)c2cc(F)c(N3CCNCC3)c(F)c21` came in with a melting point of 204 to 206 °C.

In turn, `CN1Cc2ccccc2C(=O)c2c(CC(=O)O)cccc21` came in with a melting point of 178 to 181 °C.

For the compound `O=C(NC(SC(=O)c1ccccc1)C(=O)N1CCCC1C(=O)O)c1ccccc1` (centres undefined), the melting point is 202 to 205 °C.

On to `COc1ccc2c(c1)C(=O)N(c1ccc3nc(C)ncc3c1)C2`, for which the melting point was 245 to 247 °C.

The compound `Cc1nnc(N2N=C(c3cc(C)c([N+](=O)[O-])c(C)c3)c3cc4c(cc3C[C@H]2C)OCO4)o1` showed a melting point of 132 to 133 °C.

In turn, `Nc1cccc(NC(=O)C(=O)C(=O)O)c1` yielded a melting point of 246 °C.

`CCN1CC(=O)N(c2ccc3ccccc3c2)C1=S` had a melting point of 156 to 159 °C.

`COC(=O)c1cccc(CN2CCc3cc(O)c(OC)cc3C2)c1` registered a melting point of 156 to 158 °C.

The compound `O=C(O)COc1ccc2c(-c3ccc(Cl)cc3F)noc2c1Cl` gave a melting point of 226 to 227 °C.

Consider `CCOC(=O)C1C(=O)c2cc(OC)ccc2N=C1c1ccccc1` (centres undefined), for which the melting point was 225 to 227 °C.

As to `O=C1OCC(c2ccccc2)N1CC1C2CCC(O2)C1CO` (centres undefined), the melting point lay within 131 to 133 °C.

Take `CCOC(=O)c1ccc(OCc2ccc3c(c2)C(C)(C)CCC3(C)C)cc1`: the melting point lay in the range of 109 to 111 °C.

`O=C(NCCO)c1cc(Cl)c(O)c(Cl)c1` registered a melting point of 174 to 178 °C.

On to `CCCC(C)n1sc2ccccc2c1=O` (centres undefined), for which the melting point was in the range of 52 to 54 °C.

As to `O=C(O)C(O)N1C(=O)CCN1c1ccccc1` (centres undefined), the melting point lay in the range of 127 to 129 °C.

Take `CN1NC(=O)C2C(C1=O)C2(C)C` (centres undefined): the melting point lay in the range of 151 to 154 °C.

For `CC1CC(=O)NN=C1c1ccc(NC(=O)C2CC2(Cl)Cl)cc1` (centres undefined), the melting point lay in the range of 252 to 253 °C.

As to `Nc1nc(N)nc(-c2ccc(NS(=O)(=O)c3cccc4ccccc34)cc2)n1`, the melting point is over 250 °C.

The record behind these values is a melting point compilation (Tetko et al.; mined from patent text by program, amines drawn as free bases though some values may be those of a salt).
